This assay deals with T1, Full length human recombinant HDAC6 protein (Homo sapiens, UniProt Q9UBN7).
T1 sequence (Q9UBN7 1-1215): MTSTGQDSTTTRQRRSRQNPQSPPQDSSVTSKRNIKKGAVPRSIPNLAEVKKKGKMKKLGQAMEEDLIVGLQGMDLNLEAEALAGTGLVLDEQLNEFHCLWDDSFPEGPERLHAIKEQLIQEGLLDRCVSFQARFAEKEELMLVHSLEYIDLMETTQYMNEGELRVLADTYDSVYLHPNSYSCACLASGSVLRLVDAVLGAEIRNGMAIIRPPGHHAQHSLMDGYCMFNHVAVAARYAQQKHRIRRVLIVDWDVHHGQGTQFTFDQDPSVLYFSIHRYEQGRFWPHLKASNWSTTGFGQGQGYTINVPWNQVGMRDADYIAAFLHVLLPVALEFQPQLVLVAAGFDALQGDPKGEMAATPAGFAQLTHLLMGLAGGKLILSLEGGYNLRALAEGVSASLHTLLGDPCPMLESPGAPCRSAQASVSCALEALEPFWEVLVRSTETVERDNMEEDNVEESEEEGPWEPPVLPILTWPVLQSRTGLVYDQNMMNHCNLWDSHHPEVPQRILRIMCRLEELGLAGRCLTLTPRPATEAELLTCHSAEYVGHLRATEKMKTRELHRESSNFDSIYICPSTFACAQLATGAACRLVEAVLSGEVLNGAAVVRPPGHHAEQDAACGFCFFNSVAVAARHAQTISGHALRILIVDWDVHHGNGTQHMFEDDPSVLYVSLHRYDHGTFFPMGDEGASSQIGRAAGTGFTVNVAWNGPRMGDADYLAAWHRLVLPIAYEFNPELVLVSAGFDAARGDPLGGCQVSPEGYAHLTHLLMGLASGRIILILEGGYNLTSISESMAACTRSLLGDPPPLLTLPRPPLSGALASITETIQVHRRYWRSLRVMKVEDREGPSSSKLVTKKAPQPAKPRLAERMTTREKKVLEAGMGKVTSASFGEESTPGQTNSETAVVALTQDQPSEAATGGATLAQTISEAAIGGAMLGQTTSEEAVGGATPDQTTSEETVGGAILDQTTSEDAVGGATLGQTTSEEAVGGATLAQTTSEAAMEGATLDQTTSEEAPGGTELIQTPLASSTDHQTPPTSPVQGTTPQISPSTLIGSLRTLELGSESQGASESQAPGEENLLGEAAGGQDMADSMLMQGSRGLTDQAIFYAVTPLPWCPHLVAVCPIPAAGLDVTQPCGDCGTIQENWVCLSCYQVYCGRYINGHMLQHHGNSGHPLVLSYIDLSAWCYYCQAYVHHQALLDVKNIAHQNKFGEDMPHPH
Nature of the assay: In vitro histone deacetylase assay: enzymatic HDAC6 electrophoretic mobility shift assay. The note with it: 1 nM enzyme, 2 μM peptide substrate RHKK(Ac)-NH2, 25° C., 12 concentrations; read-out: Inhibitory Concentration (IC50) Values against HDAC6, Activity Range. Type of assay: biochemical. In general terms: A gel shift assay detects complexes by their altered migration in electrophoresis.

Structures are written as SMILES. Bounds are passed on as bounds.

In the case of `O=C(NO)c1ccc2c(c1)OCCN(C(=O)C1(Cc3ccccc3)CC1)C2` [4-(1-benzylcyclopropane-1-carbonyl)-N-hydroxy-2,3,4,5-tetrahydrobenzo[f][1,4]oxazepine-8-carboxamide], the IC50 is ≤ 100 nM. As for `C[C@H](C(=O)N1CCOc2cc(C(=O)NO)ccc2C1)c1ccccc1` [(S)-N-hydroxy-4-(2-phenylpropanoyl)-2,3,4,5-tetrahydrobenzo[f][1,4]oxazepine-8-carboxamide], the IC50 is 100 to 500 nM.

In the case of `CC(C)(C(=O)N1CCOc2cc(C(=O)NO)ccc2C1)c1cccs1` [N-hydroxy-4-(2-methyl-2-(thiophen-2-yl)propanoyl)-2,3,4,5-tetrahydrobenzo[f][1,4]oxazepine-8-carboxamide], the IC50 is ≤ 100 nM. Regarding `Cn1ccc(C(=O)N2CCOc3cc(C(=O)NO)ccc3C2)n1` [N-hydroxy-4-(1-methyl-1H-pyrazole-3-carbonyl)-2,3,4,5-tetrahydrobenzo[f][1,4]oxazepine-8-carboxamide], the IC50 is ≤ 100 nM. Turning to `C[C@@H](C(=O)N1CCOc2cc(C(=O)NO)ccc2C1)c1ccccc1` [(R)-N-hydroxy-4-(2-phenylpropanoyl)-2,3,4,5-tetrahydrobenzo[f][1,4]oxazepine-8-carboxamide], the IC50 is > 500 nM. As for `O=C(NO)c1ccc2c(c1)OCC(C1CCOCC1)N(C(=O)C1CCOCC1)C2` (stereo not shown) [N-hydroxy-4-(tetrahydro-2H-pyran-4-carbonyl)-3-(tetrahydro-2H-pyran-4-yl)-2,3,4,5-tetrahydrobenzo[f][1,4]oxazepine-8-carboxamide], the figure is > 500 nM. For the molecule `COC[C@H]1COc2cc(C(=O)NO)ccc2CN1C(=O)C1CCOCC1` [(S)-N-hydroxy-3-(methoxymethyl)-4-(tetrahydro-2H-pyran-4-carbonyl)-2,3,4,5-tetrahydrobenzo[f][1,4]oxazepine-8-carboxamide], the IC50 is ≤ 100 nM. For the molecule `O=C(NO)c1ccc2c(c1)OCCN(C(=O)C1(c3ccncc3)CC1)C2` [N-hydroxy-4-(1-(pyridin-4-yl)cyclopropane-1-carbonyl)-2,3,4,5-tetrahydrobenzo[f][1,4]oxazepine-8-carboxamide], the IC50 was ≤ 100 nM. As for `O=C(NO)c1ccc2c(c1)OCCN(C(=O)C1Cc3ccccc31)C2` (stereo not shown) [4-(bicyclo[4.2.0]octa-1(6),2,4-triene-7-carbonyl)-N-hydroxy-2,3,4,5-tetrahydrobenzo[f][1,4]oxazepine-8-carboxamide], the figure is ≤ 100 nM; as for `COC1CCC(C(=O)N2Cc3ccc(C(=O)NO)cc3OC[C@@H]2C)CC1` (single isomer, unassigned), ≤ 100 nM; as for `CCC(C(=O)N1CCOc2cc(C(=O)NO)ccc2C1)c1ccccc1` (stereo not shown) [N-hydroxy-4-(2-phenylbutanoyl)-2,3,4,5-tetrahydrobenzo[f][1,4]oxazepine-8-carboxamide], 100 to 500 nM. As for `Cc1cccc(C)c1C(=O)N1CCOc2cc(C(=O)NO)ccc2C1` [4-(2,6-dimethylbenzoyl)-N-hydroxy-2,3,4,5-tetrahydrobenzo[f][1,4]oxazepine-8-carboxamide], the IC50 was 100 to 500 nM. For `O=C(NO)c1ccc2c(c1)OCCN(C(=O)c1ccc(C(F)(F)F)cc1)C2` [N-hydroxy-4-(4-(trifluoromethyl)benzoyl)-2,3,4,5-tetrahydrobenzo[f][1,4]oxazepine-8-carboxamide], the IC50 fell in the range of 100 to 500 nM.

On to `CC(C)[C@H]1COc2cc(C(=O)NO)ccc2CN1C(=O)C1(C)CCC1` [(S)-N-hydroxy-3-isopropyl-4-(1-methylcyclobutane-1-carbonyl)-2,3,4,5-tetrahydrobenzo[f][1,4]oxazepine-8-carboxamide], for which the IC50 is ≤ 100 nM. On to `C[C@H]1c2ccc(C(=O)NO)cc2OCCN1C(=O)[C@@H]1CCOC1` [(S)-N-hydroxy-5-methyl-4-((R)-tetrahydrofuran-3-carbonyl)-2,3,4,5-tetrahydrobenzo[f][1,4]oxazepine-8-carboxamide], for which the IC50 is ≤ 100 nM.

On to `O=C(NO)c1ccc2c(c1)OCCN(C(=O)c1ccc3occc3c1)C2` [4-(benzofuran-5-carbonyl)-N-hydroxy-2,3,4,5-tetrahydrobenzo[f][1,4]oxazepine-8-carboxamide], for which the IC50 was 100 to 500 nM.

For the origin of these results see patent US11891365B2, “3-alkyl-4-amido-bicyclic [4,5,0] hydroxamic acids as HDAC inhibitors” (Valo Health, Inc., priority 2015, dated 2024).
